# Laboratory results from patent US20140072557A1, “MEDICINAL AGENT FOR SUPPRESSING MALIGNANT TUMOR METASTASIS” (priority 2011, published 2014).
# Assays:
# HUVEC cell layer = experiment: Implantation of A549 cells into HUVEC cell layer; type: cell-based, human; conditions: VEGF+hANP (1 μM)
# Experimental: Normal human umbilical cord vein endothelial cells (HUVEC) were purchased from Takara Bio, Inc. Medium preparation and subculture were performed according to the package insert. Nuclear staining was performed using TOPRO3 (purchased from Invitrogen), and immunostaining of VE-cadherin was performed using anti-VE-cadherin antibody (purchased from BD Biosciences). p After culturing the HUVEC to confluent and replacing the medium with a serum free medium, nuclear staining and immunostaining using anti-VE-cadherin antibody were performed in the presence or absence of VEGF and hANP to observe the expression of VE-cadherin.
# In the presence of VEGF alone, the expression of VE-cadherin decreased, and intercellular gaps were observed. […] Further, in the presence of VEGF alone, when A549 cells were added onto the HUVEC cell layer, implantation of the A549 cells into the HUVEC cell layer was observed.
# A549 cells [1] = experiment: Migration ability, Boyden chamber assay, A549 cells; type: cell-based; conditions: 1 μM hANP, TGF-β1 1 ng/mL, 20 hours
# Experimental: (§1) Using a 6-well dish, the A549 cells were cultured at 1×10^5 cells/well, and the culture medium was replaced with DMEM culture medium free from FBS the next day. After 24 hours of culture, the cells were divided into 3 groups (the control group, the TGF-β1 group, and the TGF-β1+hANP group), and used in the following experiment.
# To the culture medium for the TGF-β+hANP group, the hANP solution was added so that the final concentration of hANP might be 1 μM. For the control group and the TGF-β1 group, the same amount of physiological saline was added to the culture medium. After 2 hours from the addition, the Boyden chamber assay was performed as follows.
# DMEM culture medium free from FBS for the control group, the same DMEM culture medium containing TGF-β1 (final concentration: 1 ng/mL) for the TGF-β1 group, and the same DMEM culture medium containing hANP (final concentration: 1 μM) and TGF-β1 (final concentration: 1 ng/mL) for the TGF-β1+hANP group were separately added to each well of a 6-well dish in an amount of 1.5 mL. On the surface of each liquid, a cell culture insert (8.0 μm pore size, made by Becton, Dickinson and Company) was placed, and onto each cell culture insert, 1.5 mL of a cell suspension of A549 cells of each group in FBS-free DMEM (hANP at final concentration of 1 μM was added for the TGF-β1+hANP group) was added and cultured. […]
# A549 cells [2] = experiment: EMT induced by TGF-β1 in A549 cells (morphology, quantitative RT-PCR); type: cell-based; conditions: 1 μM hANP, TGF-β1 stimulus
# Experimental: Using a 6-well dish, the A549 cells were cultured at 1×10^5 cells/well, and the culture medium was replaced with DMEM culture medium free from FBS the next day. After 24 hours of culture, the cells were used in the following experiment.
# An ANP group (ANP solution was added (final concentration: 1 μM)) and a control group (the same amount of physiological saline was added) were prepared, and after 2 hours from the addition, TGF-β1 was added so that the final concentration would be 0.125, 0.25, 0.5, 1.0, and 2.0 ng/mL. After 24 hours had passed, the morphological change in the cells was observed under a microscope and photographed (FIG. 3).
# Then, total RNA was collected using TRIZOL total RNA isolation reagent (made by Invitrogen), cDNA was synthesized using reverse transcriptase, and the mRNA levels of E-cadherin, N-cadherin, VEGF-A, PDGF-B, TNF-α, and IL-6 were measured by quantitative RT-PCR. It is known that in EMT, the expression of E-cadherin decreases while the expression of N-cadherin increases. The expression ratio of N-cadherin/E-cadherin is considered to be useful as an indicator of the degree of EMT.
# A549 cells [3] = experiment: Invasion ability, Matrigel-coated Boyden chamber assay, A549 cells; type: cell-based; conditions: 1 μM hANP, TGF-β1 1 ng/mL, 40 hours
# Experimental: as §1
# To the culture medium for the TGF-β1+hANP group, the hANP solution was added so that the final concentration of hANP would be […] the control group and the TGF-β1 group, the same amount of physiological saline was added to the culture medium. After 2 hours from the addition, the Boyden chamber assay was performed as follows. Cell culture inserts (8.0 μm pore size, made by Becton, Dickinson and Company) coated with Matrigel were prepared beforehand by placing cell culture inserts on a 6-well dish, adding 300 μL each of a […] Matrigel solution (adjusted with PBS) thereonto, and air drying the inserts.
# DMEM culture medium free from FBS for the control group, the same DMEM culture medium containing TGF-β1 (final concentration: 1 ng/mL) for the TGF-β1 group, and the same DMEM culture medium containing hANP (final concentration: 1 μM) and TGF-β1 (final concentration: 1 ng/mL) for the TGF-β1+hANP group were separately added to each well of a 6-well dish in an amount of 1.5 mL. […]
structure (smiles),measurement,setting,value
"CC[C@H](C)[C@@H]1NC(=O)[C@H](CCCNC(=N)N)NC(=O)[C@H](CC(=O)O)NC(=O)[C@H](CCSC)NC(=O)[C@H](CCCNC(=N)N)NC(=O)CNC(=O)CNC(=O)[C@H](Cc2ccccc2)NC(=O)[C@@H](NC(=O)[C@H](CO)NC(=O)[C@H](CO)NC(=O)[C@H](CCCNC(=N)N)NC(=O)[C@H](CCCNC(=N)N)NC(=O)[C@H](CC(C)C)NC(=O)[C@@H](N)CO)CSSC[C@@H](C(=O)N[C@@H](CC(N)=O)C(=O)N[C@@H](CO)C(=O)N[C@@H](Cc2ccccc2)C(=O)N[C@@H](CCCNC(=N)N)C(=O)N[C@@H](Cc2ccc(O)cc2)C(=O)O)NC(=O)CNC(=O)[C@H](CC(C)C)NC(=O)CNC(=O)[C@H](CO)NC(=O)[C@H](CCC(N)=O)NC(=O)[C@H](C)NC(=O)CNC1=O [hANP, carperitide]",implantation of A549 cells into the HUVEC cell layer,HUVEC cell layer,this phenomenon of implantation was suppressed
same,migration ability (cells on lower surface of insert),A549 cells [1],significantly suppressed
same,expression of E-cadherin under TGF-β1 stimulus,A549 cells [2],inhibited decrease
same,expression of N-cadherin induced by TGF-β1,A549 cells [2],significantly suppressed increase
same,expression ratio of N-cadherin/E-cadherin,A549 cells [2],significantly decreased
same,gene expression of IL-6 (mRNA level),A549 cells [2],significantly suppressed
same,gene expression of PDGF-B (mRNA level),A549 cells [2],significantly suppressed
same,gene expression of TNF-α (mRNA level),A549 cells [2],significantly suppressed
same,gene expression of VEGF-A (mRNA level),A549 cells [2],significantly suppressed
same,morphological change associated with EMT induced by TGF-β1,A549 cells [2]; 24 hours,significantly suppressed
same,cell invasion via the Matrigel layer,A549 cells [3],significantly suppressed
